Data reported in publication PMC7939384, “In crystallo screening for proline analog inhibitors of the proline cycle enzyme PYCR1” (The Journal of Biological Chemistry, 2021).

System: MCF10A hRAS^V12 spheroids
Experiment: Spheroid growth based on protein content
Format: cell-based
Conditions: 5 mM, 5 days

Structure (SMILES): O=CN1CCC[C@H]1C(=O)O [NFLP, N-formyl L-proline]
- reduction of spheroid growth based on protein content compared with control: 50%
